In ChEMBL document CHEMBL3352554, “Synthesis and structure-activity relationships of 4-fluorophenyl-imidazole p38α MAPK, CK1δ and JAK2 kinase inhibitors” (Bioorg Med Chem Lett, 2014):
Activity calls are given as the source filed them. The rule behind the calls is not given here.

What was measured:
[1] = molecular target: Casein kinase I isoform delta (Homo sapiens, UniProt P48730); assay: Inhibition of CK1-delta (unknown origin) by radiometric assay
[2] = molecular target: T1, Tyrosine-protein kinase JAK3 (Homo sapiens, UniProt P52333); assay: Inhibition of JAK3 (unknown origin) by radiometric assay
T1 sequence (P52333 whole entry): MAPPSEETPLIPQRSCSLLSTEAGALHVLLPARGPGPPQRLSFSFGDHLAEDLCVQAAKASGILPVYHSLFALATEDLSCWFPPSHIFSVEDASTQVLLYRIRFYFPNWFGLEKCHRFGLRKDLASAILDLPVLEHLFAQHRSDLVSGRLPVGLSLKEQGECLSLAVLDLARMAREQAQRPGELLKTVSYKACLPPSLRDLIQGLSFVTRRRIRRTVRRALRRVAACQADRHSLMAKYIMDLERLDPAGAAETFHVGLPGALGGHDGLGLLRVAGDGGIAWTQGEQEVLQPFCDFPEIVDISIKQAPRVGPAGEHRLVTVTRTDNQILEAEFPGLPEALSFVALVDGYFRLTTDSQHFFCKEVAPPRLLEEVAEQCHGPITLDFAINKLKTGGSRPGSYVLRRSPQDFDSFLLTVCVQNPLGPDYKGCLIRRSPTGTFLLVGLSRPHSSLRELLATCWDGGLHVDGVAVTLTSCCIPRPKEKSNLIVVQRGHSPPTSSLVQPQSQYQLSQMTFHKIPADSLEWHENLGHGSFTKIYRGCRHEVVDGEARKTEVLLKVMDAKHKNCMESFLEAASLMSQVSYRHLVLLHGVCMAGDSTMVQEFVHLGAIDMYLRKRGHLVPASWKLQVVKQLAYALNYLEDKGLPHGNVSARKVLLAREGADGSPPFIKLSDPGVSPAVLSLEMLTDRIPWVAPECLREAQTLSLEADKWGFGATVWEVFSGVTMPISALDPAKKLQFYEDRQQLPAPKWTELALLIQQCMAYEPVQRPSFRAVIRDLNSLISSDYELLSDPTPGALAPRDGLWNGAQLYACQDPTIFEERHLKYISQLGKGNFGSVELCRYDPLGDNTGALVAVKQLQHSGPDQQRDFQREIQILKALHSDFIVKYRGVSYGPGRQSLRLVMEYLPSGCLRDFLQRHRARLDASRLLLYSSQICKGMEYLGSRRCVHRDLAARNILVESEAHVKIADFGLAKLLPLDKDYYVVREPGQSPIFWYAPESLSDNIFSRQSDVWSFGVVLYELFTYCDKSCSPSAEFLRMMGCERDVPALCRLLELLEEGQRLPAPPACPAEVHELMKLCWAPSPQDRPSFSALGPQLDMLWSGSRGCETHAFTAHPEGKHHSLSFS

[3] = molecular target: Tyrosine-protein kinase JAK1 (Homo sapiens, UniProt P23458); assay: Inhibition of JAK1 (unknown origin) by radiometric assay
[4] = molecular target: Tyrosine-protein kinase JAK2 (Homo sapiens, UniProt O60674); assay: Inhibition of JAK2 (unknown origin) by radiometric assay
[5] = molecular target: T2, Mitogen-activated protein kinase 14 (Homo sapiens, UniProt Q16539); assay: Inhibition of p38alpha MAPK (unknown origin) by radiometric assay
[6] = molecular target: T2, Mitogen-activated protein kinase 14; assay: Inhibition of p38alpha MAPK in TNF-alpha-induced HUVEC assessed as downregulation of IL-6 mRNA expression at 10 uM incubated for 4 hrs by RT-PCR analysis; assay type: cell-based
Homo sapiens [7] = species on record: Homo sapiens; assay: Selectivity ratio of IC50 for p38alpha MAPK (unknown origin) to IC50 for JAK2 (unknown origin)
[8] = molecular target: T2, Mitogen-activated protein kinase 14; assay: Inhibition of p38alpha MAPK in TNF-alpha-induced HUVEC assessed as downregulation of VCAM-1 mRNA expression at 10 uM incubated for 4 hrs by RT-PCR analysis; assay type: cell-based
Homo sapiens [9] = species on record: Homo sapiens; assay: Selectivity ratio of IC50 for p38alpha MAPK (unknown origin) to IC50 for CK1-delta (unknown origin)
[10] = molecular target: T2, Mitogen-activated protein kinase 14; assay: Inhibition of p38alpha MAPK in TNF-alpha-induced HUVEC assessed as downregulation of COX-2 mRNA expression at 10 uM incubated for 4 hrs by RT-PCR analysis; assay type: cell-based

Sequence of Casein kinase I isoform delta (P48730 whole entry, canonical isoform): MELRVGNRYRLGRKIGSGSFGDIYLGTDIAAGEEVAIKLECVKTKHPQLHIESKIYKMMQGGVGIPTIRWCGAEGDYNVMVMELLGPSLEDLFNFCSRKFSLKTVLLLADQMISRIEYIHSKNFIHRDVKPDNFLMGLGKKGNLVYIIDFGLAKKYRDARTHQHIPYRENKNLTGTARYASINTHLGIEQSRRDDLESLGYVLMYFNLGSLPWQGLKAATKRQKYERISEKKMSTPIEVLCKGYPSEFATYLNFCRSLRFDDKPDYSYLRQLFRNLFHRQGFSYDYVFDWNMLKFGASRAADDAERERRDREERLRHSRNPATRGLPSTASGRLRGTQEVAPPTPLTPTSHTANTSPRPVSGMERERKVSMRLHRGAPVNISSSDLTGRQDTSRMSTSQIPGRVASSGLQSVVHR
Sequence of Tyrosine-protein kinase JAK2 (O60674 whole entry): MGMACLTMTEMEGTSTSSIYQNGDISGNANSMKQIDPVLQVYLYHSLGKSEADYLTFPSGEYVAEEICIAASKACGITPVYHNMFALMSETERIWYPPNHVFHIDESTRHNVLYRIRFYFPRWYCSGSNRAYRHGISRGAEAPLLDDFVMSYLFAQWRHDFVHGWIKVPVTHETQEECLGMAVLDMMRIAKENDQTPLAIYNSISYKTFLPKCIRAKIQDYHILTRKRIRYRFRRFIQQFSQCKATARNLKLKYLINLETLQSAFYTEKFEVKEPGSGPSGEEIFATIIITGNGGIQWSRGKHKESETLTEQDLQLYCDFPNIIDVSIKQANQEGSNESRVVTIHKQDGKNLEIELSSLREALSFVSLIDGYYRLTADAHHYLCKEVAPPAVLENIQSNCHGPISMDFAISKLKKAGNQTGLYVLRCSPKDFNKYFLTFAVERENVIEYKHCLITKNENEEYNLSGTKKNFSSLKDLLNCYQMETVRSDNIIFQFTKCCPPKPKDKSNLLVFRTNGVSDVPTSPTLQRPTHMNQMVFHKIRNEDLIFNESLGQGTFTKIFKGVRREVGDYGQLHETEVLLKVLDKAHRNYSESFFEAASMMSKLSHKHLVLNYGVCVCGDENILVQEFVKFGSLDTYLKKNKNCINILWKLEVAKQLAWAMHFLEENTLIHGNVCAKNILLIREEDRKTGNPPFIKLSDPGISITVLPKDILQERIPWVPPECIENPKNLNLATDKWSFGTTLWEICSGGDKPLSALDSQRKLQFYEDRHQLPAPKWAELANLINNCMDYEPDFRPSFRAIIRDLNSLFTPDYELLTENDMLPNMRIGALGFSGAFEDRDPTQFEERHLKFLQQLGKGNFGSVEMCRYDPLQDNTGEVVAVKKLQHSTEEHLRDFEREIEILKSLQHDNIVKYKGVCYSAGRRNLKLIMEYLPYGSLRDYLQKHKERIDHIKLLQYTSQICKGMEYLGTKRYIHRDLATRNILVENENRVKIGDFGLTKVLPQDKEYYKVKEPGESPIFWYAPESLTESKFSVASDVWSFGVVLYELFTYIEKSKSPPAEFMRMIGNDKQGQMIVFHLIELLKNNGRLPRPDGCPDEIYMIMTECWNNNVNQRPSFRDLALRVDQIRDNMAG
T2 sequence (Q16539 whole entry): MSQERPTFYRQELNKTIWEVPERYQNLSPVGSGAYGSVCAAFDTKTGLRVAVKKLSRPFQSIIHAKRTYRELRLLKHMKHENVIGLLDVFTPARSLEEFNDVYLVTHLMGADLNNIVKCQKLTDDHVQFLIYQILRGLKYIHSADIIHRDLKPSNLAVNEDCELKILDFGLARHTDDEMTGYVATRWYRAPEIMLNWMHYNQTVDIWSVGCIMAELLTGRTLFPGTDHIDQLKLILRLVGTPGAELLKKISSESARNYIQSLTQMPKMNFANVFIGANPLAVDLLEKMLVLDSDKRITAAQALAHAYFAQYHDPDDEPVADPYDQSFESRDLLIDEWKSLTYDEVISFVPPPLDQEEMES
Sequence of Tyrosine-protein kinase JAK1 (P23458 whole entry): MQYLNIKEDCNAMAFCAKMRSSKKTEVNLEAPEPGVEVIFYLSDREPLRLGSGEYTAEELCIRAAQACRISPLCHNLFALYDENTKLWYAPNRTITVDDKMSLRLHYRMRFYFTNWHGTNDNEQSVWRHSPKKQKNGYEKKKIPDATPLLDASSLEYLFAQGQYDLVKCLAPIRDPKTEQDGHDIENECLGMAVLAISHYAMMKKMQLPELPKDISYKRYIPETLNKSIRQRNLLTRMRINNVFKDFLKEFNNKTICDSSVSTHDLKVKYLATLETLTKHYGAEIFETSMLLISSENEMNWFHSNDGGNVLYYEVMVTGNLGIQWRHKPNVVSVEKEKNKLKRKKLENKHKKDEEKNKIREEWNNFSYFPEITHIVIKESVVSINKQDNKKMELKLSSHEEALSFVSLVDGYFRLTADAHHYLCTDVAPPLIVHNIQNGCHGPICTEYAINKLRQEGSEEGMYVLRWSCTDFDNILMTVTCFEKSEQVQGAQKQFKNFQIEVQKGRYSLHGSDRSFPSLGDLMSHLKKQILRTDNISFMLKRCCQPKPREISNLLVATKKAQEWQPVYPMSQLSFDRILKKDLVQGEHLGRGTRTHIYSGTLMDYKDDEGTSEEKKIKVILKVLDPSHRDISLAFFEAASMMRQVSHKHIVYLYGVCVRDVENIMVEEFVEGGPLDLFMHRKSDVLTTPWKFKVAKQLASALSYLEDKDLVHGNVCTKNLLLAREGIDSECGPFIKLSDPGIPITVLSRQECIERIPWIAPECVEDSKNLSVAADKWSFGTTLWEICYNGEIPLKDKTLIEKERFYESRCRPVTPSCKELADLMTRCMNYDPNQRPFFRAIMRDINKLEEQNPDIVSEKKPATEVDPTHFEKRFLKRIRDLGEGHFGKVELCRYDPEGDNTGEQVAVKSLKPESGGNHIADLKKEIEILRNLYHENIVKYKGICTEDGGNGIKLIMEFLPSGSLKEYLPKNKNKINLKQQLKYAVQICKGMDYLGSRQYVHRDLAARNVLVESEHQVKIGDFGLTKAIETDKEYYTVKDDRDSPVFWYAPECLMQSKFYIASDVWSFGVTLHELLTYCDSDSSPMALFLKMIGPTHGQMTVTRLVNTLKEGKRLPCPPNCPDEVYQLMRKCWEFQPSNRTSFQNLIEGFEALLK

SMILES | IC50 [1] | IC50 [2] | IC50 [3] | IC50 [4] | IC50 [5] | inhibition [6] | Ratio IC50 (Homo sapiens [7]) | inhibition [8] | Ratio IC50 (Homo sapiens [9]) | inhibition [10]
Cn1c(-c2cn(-c3cccc(C(=O)O)c3)nn2)nc(-c2ccc(F)cc2)c1-c1ccncc1 | 0.089 µM | > 100 µM | > 100 µM | > 100 µM | – | – | – | – | – | –
C[C@H](Nc1nccc(-c2c(-c3ccc(F)cc3)nc3nc(N)ccn23)n1)c1ccccc1 | > 100 µM | > 100 µM | > 100 µM | > 100 µM | 0.0085 µM | – | – | – | – | –
Cn1c(-c2cn(-c3ccc(C(=O)O)cc3)nn2)nc(-c2ccc(F)cc2)c1-c1ccncc1 | 1.6 µM | > 100 µM | > 100 µM | > 100 µM | 0.166 µM | – | – | – | – | –
CCOP(=O)(CCn1cc(-c2ccn3c(-c4ccnc(SC)n4)c(-c4ccc(F)cc4)nc3n2)nn1)OCC | 21.4 µM | > 100 µM | > 100 µM | > 100 µM | 12 µM | – | – | – | – | –
CCOP(=O)(CCn1cc(-c2nc(-c3ccc(F)cc3)c(-c3ccncc3)n2C)nn1)OCC | 3.1 µM | > 100 µM | > 100 µM | > 100 µM | 2.48 µM | – | – | – | – | –
CCOP(=O)(CCn1cc(-c2ccc(-c3nc(-c4ccc(F)cc4)c(-c4cc[nH]c(=O)c4)[nH]3)cc2)nn1)OCC | 44.3 µM | 37.4 µM | 23.9 µM | 4.2 µM | > 100 µM | – | – | – | – | –
O=C(O)c1ccc(-c2nc(-c3ccc(F)cc3)c(-c3cc[nH]c(=O)c3)[nH]2)cc1 | 24.8 µM | 3.9 µM | 14.1 µM | 0.274 µM | 2.94 µM | inactive | 10 | inactive | 10 | inactive
O=c1cc(-c2[nH]c(-c3ccc(O)cc3)nc2-c2ccc(F)cc2)cc[nH]1 | 19.7 µM | 14.4 µM | 54.6 µM | 0.911 µM | 4.96 µM | inactive | – | inactive | – | inactive
C#Cc1ccc(-c2nc(-c3ccc(F)cc3)c(-c3cc[nH]c(=O)c3)[nH]2)cc1 | 19.9 µM | > 100 µM | > 10 µM | 14.3 µM | 9.39 µM | – | – | – | – | –
Cn1c(-c2cn([C@@H]3[C@@H](O)[C@H](O)[C@@H](CO)O[C@H]3O)nn2)nc(-c2ccc(F)cc2)c1-c1ccncc1 | 0.439 µM | > 100 µM | > 100 µM | > 100 µM | 1.02 µM | – | – | – | – | –
Cn1c(-c2c[nH]nn2)nc(-c2ccc(F)cc2)c1-c1ccncc1 | 0.202 µM | > 100 µM | > 100 µM | > 100 µM | 0.21 µM | – | – | – | – | –
Cn1c(-c2cn(CCP(=O)(O)O)nn2)nc(-c2ccc(F)cc2)c1-c1ccncc1 | 0.225 µM | > 100 µM | > 100 µM | > 100 µM | – | – | – | – | – | –
CCOC(=O)Cn1cc(-c2ccc(-c3nc(-c4ccc(F)cc4)c(-c4cc[nH]c(=O)c4)[nH]3)cc2)nn1 | 24.5 µM | 3.03 µM | 80.1 µM | 0.352 µM | 32.9 µM | – | – | – | – | –
O=c1cc(-c2[nH]c(-c3ccc(-c4nnn[nH]4)cc3)nc2-c2ccc(F)cc2)cc[nH]1 | 12.1 µM | 0.783 µM | 1.68 µM | 0.061 µM | 2.53 µM | – | – | – | – | –
CSc1nccc(-c2c(-c3ccc(F)cc3)nc3nc(-c4cn(CC(=O)O)nn4)ccn23)n1 | > 100 µM | > 100 µM | > 100 µM | > 100 µM | 0.25 µM | – | – | – | – | –
O=c1cc(-c2[nH]c(-c3ccc(-c4cn(CCO)nn4)cc3)nc2-c2ccc(F)cc2)cc[nH]1 | 17.9 µM | 10.6 µM | > 10 µM | 0.5 µM | 18.6 µM | – | – | – | – | –
O=c1cc(-c2[nH]c(C3CCNCC3)nc2-c2ccc(F)cc2)cc[nH]1 | 12 µM | 11.8 µM | 16.9 µM | 6.62 µM | 1.14 µM | inactive | – | inactive | – | inactive
CSc1nccc(-c2[nH]c(-c3ccc(O)cc3)nc2-c2ccc(F)cc2)n1 | 5.96 µM | 78.3 µM | > 100 µM | > 100 µM | 0.0955 µM | – | – | – | – | –
Oc1ccc(-c2nc(-c3ccncc3)c(-c3ccc(F)cc3)[nH]2)cc1 [SB-202190] | 0.188 µM | > 100 µM | > 100 µM | > 100 µM | – | – | – | – | – | –
CSc1nccc(-c2c(-c3ccc(F)cc3)nc3nc(N)ccn23)n1 | > 100 µM | > 100 µM | > 100 µM | > 100 µM | 0.12 µM | – | – | – | – | –
Cn1c(-c2cn([C@H]3CCNC[C@@H]3F)nn2)nc(-c2ccc(F)cc2)c1-c1ccncc1 | 0.437 µM | > 100 µM | > 100 µM | > 100 µM | – | – | – | – | – | –
O=c1cc(-c2[nH]c(-c3ccc(-c4cn(CCP(=O)(O)O)nn4)cc3)nc2-c2ccc(F)cc2)cc[nH]1 | 10.8 µM | > 100 µM | > 100 µM | – | > 100 µM | – | – | – | – | –
C#Cc1ccc(-c2nc(-c3ccc(F)cc3)c(-c3ccnc(SC)n3)[nH]2)cc1 | 66.3 µM | > 100 µM | > 100 µM | > 100 µM | 82.1 µM | – | – | – | – | –
CSc1nccc(-c2c(-c3ccc(F)cc3)nc3nc(-c4cn(CCP(=O)(O)O)nn4)ccn23)n1 | > 100 µM | > 100 µM | > 100 µM | > 100 µM | > 100 µM | – | – | – | – | –
C#Cc1ccn2c(-c3ccnc(SC)n3)c(-c3ccc(F)cc3)nc2n1 | > 100 µM | > 100 µM | > 100 µM | > 100 µM | 2.51 µM | – | – | – | – | –
O=C(O)c1cc(-c2nc(-c3ccc(F)cc3)c(-c3cc[nH]c(=O)c3)[nH]2)ccc1O | 21.2 µM | 21.4 µM | > 100 µM | 3.71 µM | 6.81 µM | inactive | – | inactive | – | inactive
Cn1c(-c2cn(CCO)nn2)nc(-c2ccc(F)cc2)c1-c1ccncc1 | 0.24 µM | > 100 µM | > 100 µM | > 100 µM | 0.783 µM | – | – | – | – | –
